Source: ChEMBL document CHEMBL4616670, “Phosphine Oxides from a Medicinal Chemist's Perspective: Physicochemical and in Vitro Parameters Relevant for Drug Discovery” (J Med Chem, 2020)
Values after ≈ are worked out from the molar mass of the structure shown.

Experiments:
[1] = physchem; details: octanol/water, pH 2
Description: Octanol/water partition coefficient, log D of the compound at pH 2

[2] = physchem; details: pH 6.8 buffer
[3] = physchem; details: octanol/water, pH 11
Description: Octanol/water partition coefficient, log D of the compound at pH 11

[4] = physchem; details: pH 6.8 buffer; remark: listed apart in the source
[5] = physchem; details: MeOH/HCl solution
Description: Chemical stability of the compound in MeOH/HCl solution at pH <1 assessed as compound decomposition measured after 7 days by UV-RP-HPLC analysis

[6] = in vitro; details: human, Caco-2
Description: Permeability across apical to basolateral side in human Caco2 cells measured up to 2 hrs by LC-MS/MS analysis or scintillation counting method

[7] = in vitro; details: human, liver microsomes
Description: Stability in human liver microsomes at 1 uM incubated prior to NADPH addition by LC-MS/MS analysis relative to hepatic blood flow

[8] = 168 h
Description: Chemical stability of the compound in MeOH/NH3 solution at pH >10 assessed as compound decomposition measured after 7 days by UV-RP-HPLC analysis

[9] = in vitro; details: human, Caco-2; remark: listed apart in the source
Description: Efflux ratio of permeability in human Caco2 cells measured up to 2 hrs by LC-MS/MS analysis or scintillation counting method

[10] = in vitro; details: human, liver microsomes; remark: listed apart in the source
Description: Half life in human liver microsomes at 1 uM incubated prior to NADPH addition by LC-MS/MS analysis

Compound | logD [1] | solubility thermodynamic at 24 h [2] [µg/mL] | logD [3] | solubility thermodynamic at 24 h [4] [µg/mL] | degraded at 168 h [5] [%] | Papp A→B at 2 h [6] [×10⁻⁶ cm/s] | hepatic extraction ratio at 1 µM [7] | Drug degradation [8] [%] | efflux ratio at 2 h [9] | half-life at 1 µM [10] [h]
C[S+]([O-])c1ccc(C(F)(F)F)cc1 (centres undefined) | 1.7 | > 46 | 1.4 | 11100 (≈ 53300 µM) | – | – | – | – | – | –
CC(C)OP(=O)(OC(C)C)c1ccc(C(F)(F)F)cc1 | 4.3 | 29 (≈ 93.5 µM) | 4.2 | 400 (≈ 1290 µM) | < 10 | 84 | < 0.23 | < 10 | 0.5 | > 2.17
O=P1(c2ccc(C(F)(F)F)cc2)CCCCC1 | 2.4 | > 66 | 2 | 7700 (≈ 29400 µM) | < 10 | 49 | < 0.23 | < 10 | 1.1 | > 2.17
CN=S(=O)(NC)c1ccc(C(F)(F)F)cc1 (centres undefined) | 0.7 | > 57 | 1.8 | 1200 (≈ 4760 µM) | – | 81 | – | – | 0.5 | –
CCOP(C)(=O)c1ccc(C(=O)Nc2ccc(C)c(Nc3nccc(-c4cccnc4)n3)c2)cc1 (centres undefined) | 0.9 | 51 (≈ 105 µM) | 2.2 | – | – | 5 | 0.45 | – | 9.9 | 0.8
CCP(=O)(CC)c1ccncc1 | < -1.8 | > 46 | -1 | 11600 (≈ 63300 µM) | – | 19 | < 0.23 | – | 0.6 | > 2.17
CNS(=O)(=O)c1ccc(C(F)(F)F)cc1 | – | > 49 | – | 900 (≈ 3760 µM) | – | 36 | – | – | 0.9 | –
O=P1(c2ccc(C(F)(F)F)cc2)CCC1 | 1.8 | > 53 | 1.6 | 24500 (≈ 105000 µM) | < 10 | 78 | < 0.23 | < 10 | 0.8 | > 2.17
CC(C)(C)OC(=O)c1ccc(C(F)(F)F)cc1 | – | 7 (≈ 28.4 µM) | – | 20 (≈ 81.2 µM) | – | – | – | – | – | –
CCOP(=O)(OCC)c1ccncc1 | 0 | > 50 | 0.2 | 29500 (≈ 137000 µM) | – | 66 | < 0.23 | – | 0.7 | > 2.17
O=P1(c2ccc(C(F)(F)F)cc2)CCCC1 | 2 | > 59 | 1.7 | 24500 (≈ 98700 µM) | < 10 | 69 | < 0.23 | < 10 | 0.7 | > 2.17
Cc1ccc(NC(=O)c2ccc(C(=O)N(C)C)cc2)cc1Nc1nccc(-c2cccnc2)n1 | 0.7 | < 1 | 2 | – | – | 19 | 0.37 | – | 2.2 | 1.12
CN(C)S(=O)(=O)c1ccc(C(F)(F)F)cc1 | 3.4 | 47 (≈ 186 µM) | – | 90 (≈ 355 µM) | – | – | – | – | – | –
Cc1ccc(NC(=O)c2ccc(C(N)=O)cc2)cc1Nc1nccc(-c2cccnc2)n1 | 0.4 | < 1 | 1.5 | – | – | 3 | 0.25 | – | 8.1 | 1.95
CCOC(=O)c1ccc(C(=O)Nc2ccc(C)c(Nc3nccc(-c4cccnc4)n3)c2)cc1 | 1.9 | < 1 | 3.5 | – | – | – | > 0.88 | – | – | < 0.0833
CC(C)(C)NC(=O)c1ccc(C(F)(F)F)cc1 | 3.8 | 14 (≈ 57.1 µM) | 3.7 | 10 (≈ 40.8 µM) | – | 56 | – | – | 0.7 | –
COP(=O)(OC)c1ccc(C(F)(F)F)cc1 | 2.5 | 50 (≈ 197 µM) | 2.2 | 10100 (≈ 39700 µM) | < 10 | 85 | < 0.23 | < 10 | 0.5 | > 2.17
CN=S(=O)(c1ccc(C(F)(F)F)cc1)N(C)C (centres undefined) | 2.2 | 49 (≈ 184 µM) | 2.9 | 1200 (≈ 4510 µM) | – | 70 | – | – | 0.8 | –
COC(=O)c1ccc(C(F)(F)F)cc1 | – | < 1 | – | 20 (≈ 98 µM) | – | – | – | – | – | –
NS(=O)(=O)c1ccc(C(F)(F)F)cc1 | – | > 48 | – | 800 (≈ 3550 µM) | – | 83 | – | – | 0.6 | –
O=P1(c2ccc(C(F)(F)F)cc2)CCOCC1 | 1.4 | > 65 | 1.1 | > 30000 | < 10 | 65 | < 0.23 | < 10 | 0.7 | > 2.17
CCOP(C)(=O)c1ccncc1 (centres undefined) | -1.1 | > 45 | -0.7 | > 30000 | – | 54 | < 0.23 | – | 0.6 | > 2.17
CNC(=O)c1ccc(C(=O)Nc2ccc(C)c(Nc3nccc(-c4cccnc4)n3)c2)cc1 | 0.5 | < 1 | 1.7 | – | – | 8 | < 0.23 | – | 4.9 | > 2.17
CP(C)(=O)c1ccc(C(F)(F)F)cc1 | 1.5 | > 52 | 1.1 | > 30000 | < 10 | 82 | < 0.23 | < 10 | 0.5 | > 2.17
CNC(=O)c1ccc(C(F)(F)F)cc1 | 1.9 | > 51 | 1.6 | 200 (≈ 984 µM) | – | 56 | – | – | 0.9 | –
CN=S(C)(=O)c1ccc(C(F)(F)F)cc1 (centres undefined) | 0.7 | > 54 | 1.7 | 2400 (≈ 10100 µM) | – | 67 | – | – | 1 | –
CS(=O)(=O)c1ccc(C(F)(F)F)cc1 | – | > 47 | – | 300 (≈ 1340 µM) | – | – | – | – | – | –
CCOP(C)(=O)c1ccc(C(F)(F)F)cc1 (centres undefined) | 2.5 | – | 2.3 | – | – | 69 | < 0.23 | – | 1 | > 2.17
NC(=O)c1ccc(C(F)(F)F)cc1 | 1.5 | > 44 | – | 300 (≈ 1590 µM) | – | 68 | – | – | 1 | –
